Experiment [1] has as its system 5-LO. Put plainly: Test b) heparinised human blood, A23187 challenge, LTB4 radioimmunoassay. It is filed as cell-based. The procedure: b) An in vitro assay system involving incubating a test compound with heparinised human blood, prior to challenge with the calcium ionophore A23187 and then indirectly measuring the inhibitory effects on 5-LO by assaying the amount of LTB4 using specific radioimmunoassays described by Carey and Forder (F. Carey and R. A. Forder, Prostaglandins Leukotrienes Med., 1986, 22, 57; Prostaglandins,1984, 28, 666; Brit. J. Pharmacol. 1985, 84, 34P) which involve the use of a protein-LTB4 conjugate produced using the procedure of Young et alia (Prostaglandins, 1983, 26(4), 605-613). The effects of a test compound on the enzyme cyclooxygenase (which is involved in the alternative metabolic pathway for arachidonic acid and gives rise to prostaglandins, thromboxanes and related metabolites) may be measured at the same time using the specific radioimmunoassay for thromboxane B2 (TxB2) described by Carey and Forder (see above). This test provides an indication of the effects of a test compound against 5-LO and also cyclooxygenase in the presence of blood cells and proteins. It permits the selectivity of the inhibitory effect on 5-LO or cyclooxygenase to be assessed.

The test system of experiment [2] is 5-LO. Put plainly: Test g) zymosan-induced LTB4 liberation in air pouch of male rats. It is filed as in vivo. The note with it: 3 h; test g), rat air pouch, oral. The protocol:
g) An in vivo system involving measuring the effects of a test compound administered orally against the liberation of LTB4 induced by zymosan within an air pouch generated within the subcutaneous tissue of the back of male rats. The rats are anaesthetised and air pouches are formed by the injection of sterile air (20 ml). A further injection of air (10 ml) is similarly given after 3 days. At 6 days after the initial air injection the test compound is administered (usually orally as the suspension produced when a solution of the test compound in dimethylsulphoxide is added to hydroxypropylmethylcellulose), followed by the intrapouch injection of zymosan (1 ml of a 1% suspension in physiological saline). After 3 hours the rats are killed, the air pouches are lavaged with physiological saline, and the specific radioimmunoassay described above is used to assay LTB4 in the washings. This test provides an indication of inhibitory effects against 5-LO in an inflammatory milieu.

Molecules are shown by their SMILES. pIC50: −log10 of the molar value.

For orientation: pIC50 means the IC50 on a negative log10 scale, so that one unit is a factor of ten. A lower pIC50 goes with a large IC50. A word on the ED50: it is the dose that gives a 50% effect, or the effect in half of the subjects.

The molecule `COC1(c2cc(F)cc(OCc3ccc4c(c3)CCC(=S)N4C)c2)CCOCC1` [4-[5-fluoro-3-(1-methyl-2-thioxo-1,2,3,4-tetrahydroquinolin-6-ylmethoxy)phenyl]-4-methoxytetrahydropyran] showed a pIC50 in experiment [1] of 7.00. In addition, the ED50 in experiment [2] stood at 1.5 mg/kg.

Consider `COC1(c2cc(F)cc(Sc3ccc4c(c3)CCC(=S)N4C)c2)CCOCC1` [4-[5-fluoro-3-(1-methyl-2-thioxo-1,2,3,4-tetrahydroquinolin-6-ylthio)phenyl]-4-methoxytetrahydropyran], for which, in experiment [1], the pIC50 is 7.30. Further, the ED50 in experiment [2] was found to be 0.5 mg/kg.

Values taken from patent US5240941A, “Thioxo quinoline compounds, composition and method of use” (ICI Pharma, priority 1990, dated 1993).
